{
  "source": "patent US6733971B2",
  "about": "“Method for identifying an agent that affects a hedgehog signaling pathway” (priority 1998, dated 2004)",
  "key": {"[1]": {"system": "Ci", "test": "Ci induction in cl-8 cells with or without HH-N conditioned medium, Western blot", "assay_type": "cell-based, Drosophila", "protocol": "cl-8 cells were cultured as described in Van Leeuwen, F., et al. Nature, 368:342-344, 1994. Culture and transfection of S2 cells were performed as described in Porter, J. A. et al. Cell, 86: 21-34, 1996. The conditioned medium was made by culturing transfected S2 cells in cl-8 medium, and induced by adding CUSO4, to the final concentration of 0.5 Mm overnight. The conditioned medium was harvested the next day, centrifuged to remove S2 cells and the supernatant was used. To make lysate from cl-8 cells, cl-8 cells were washed, harvested in cold phosphate buffered saline (PBS), and then resuspended in NP-40 lysis buffer (150 Mm NaCl, 50 Mm Tris pH8, 1% NP-40, 1 Mm EDTA, 20 μg/ml aprotinin, 20 μg/ml leupeptin, 1 μg/ml pepstatin A, 2.5 μg/ml antipain, 100 μM PMSF, 50 mM NaF, 5 mM Na2P4O7). Cells were lysed at 4° C. for 10 minutes, then centrifuged at 13,000×g for 10 minutes. The supernatant was saved for Western blot analysis.\nSDS-PAGE and protein transfer were carried out by standard methods. The primary antibodies used were: rat monoclonal anti-Ci 2Al 1:20 dilution; mouse monoclonal anti-Ptc 1:1000 dilution; mouse monoclonal anti-actin 1:2500. Secondary antibodies were from Jackson Immunologicals. The filters were developed using SuperSignal from Pierce.\nTautomycin (TAU) and okadaic acid (OA) were purchased from Calbiochem and dissolved in dimethyl sulfoxide (DMSO) to different concentrations. The phosphatase inhibitors were mixed with conditioned medium and the concentration of DMSO was adjusted to 0.2% for each sample. cl-8 cells were incubated with conditioned medium and phosphatase inhibitor mixture for 4 hours and lysed for analysis."}, "[2]": {"system": "Isl1 mRNA", "test": "Isl1 mRNA in P19 cells, RT-PCR", "assay_type": "cell-based, mouse", "details": "5 nM for 12 hours, 1 nM Shh-N for 24 hours", "protocol": "Methods described in Example 6 were used in addition to the following protocols. P19 cells were treated with (FIG. 8A, lanes 2 and 4) or without (FIG. 8A, lanes 1 and 3) 1 nM Shh-N for 24 hours and 5 nM OA (FIG. 8A, lanes 3 and 4) for 12 hours and total RNA was obtained. An internal control containing a 763 bp insert into the SphI site of the Islet-1 cDNA was transcribed in vitro to prepare sense-oriented RNA. 1 ng of this RNA along with 100 ng of total RNA from appropriately treated P19 cells was reverse transcribed using Superscript II™ and one-tenth of each reaction was PCR amplified. Specific primers for Islet-1; Forward primer: 5′TCAAAC CTA CTT TGG GGT CTT A 3′SEQ ID NO:5. Reverse primer: 5′ATCGCCGGGGATGAGCTGGCGGCT 3′SEQ ID NO:6, and for COUP-TFII; Forward primer: 5′GATATGGCAATGGTAGTCAGCACGTGG 3′. SEQ ID NO:7, Reverse primer: 5′AGCTTCTCCACTTGCTCTTGG 3′SEQ ID NO:8, were used to PCR amplify (94° C. for 1 minute, 54° C. for 1 minute, and 72° C. for 1 minute. Twenty-two cycles were used for amplifying Islet-1 and the resulting products were separated on a 1% agarose gel in TAE buffer and visualized by ethidium bromide staining. A 1 kb DNA ladder (Stratagene) was used to estimate the size of the products. A 427 bp Isl1 fragment and a 838 bp COUP-TFII fragment was used to estimate changes in mRNA levels."}, "[3]": {"system": "COUP-TFII mRNA", "test": "COUP-TFII mRNA in P19 cells, RNase protection assay", "assay_type": "cell-based, mouse", "details": "5 nM for 12 hours, with 1.0 nM Shh-N", "protocol": "The P19 mouse embryo carcinoma cell line which was earlier shown to contain increased levels of COUP-TF transcripts after retinoid treatment was utilized. Jonk, L. J. C., et al., Mechan. of Dev. (1994) 47:81-97). Conditioned media obtained from COS-1 cells transfected with mouse Shh-N cDNA expression plasmid or purified E. coli expressed recombinant Shh-N was used.\nBriefly, a total of 20 μg RNA was hybridized to a 450 (FIG. 5A) or 120 (FIG. 7B) nucleotide riboprobe that corresponds to the 5′ untranslated region (UTR) of the COUP-TFII gene along with a 670 (FIG. 5A) or 102 (FIG. 7B) nucleotide riboprobe of the murine Cyclophilin A coding region. The RPA II™ kit from Ambion was used to perform the RNase protection assay. The products were subjected to RNase digestion and analyzed on a 6% urea polyacrylamide gel.\nP-19 cells were treated with phosphatase inhibitors to study the endogenous levels of COUP-TFII mRNA. […] Total RVA was isolated from these cells and 20 μg of RNA was used in a RNase protection assay as described above in Example 6. A region of the murine Cyclophilin A cDNA was used to generate riboprobe and was used as an internal control. P19 cells were co-treated with (FIG. 7C, lane 2, 4, 6, and 7) or without (FIG. 7C, lane 1, 3, and 5) 1.0 nM Shh-N and 5 nM OA (lane 3 and 4), 0.5 nM CyA (FIG. 7C, lane 5 & 6) or 5 nm NoA (FIG. 7C, lane 9). Cells were harvested after 24 hours of treatment and the nuclear extract was obtained for the binding reactions. Extracts were subjected to an EMSA as described earlier."}},
  "data": [
    {"smiles": "C=C1[C@@H](O)[C@@H]2O[C@]3(CC[C@H](/C=C/[C@@H](C)[C@@H]4CC(C)=C[C@@]5(O[C@H](C[C@@](C)(O)C(=O)O)CC[C@H]5O)O4)O3)CC[C@H]2O[C@@H]1[C@@H](O)C[C@H](C)[C@H]1O[C@@]2(CCCCO2)CC[C@H]1C", "note": "[OA, okadaic acid]", "values": [
      {"measurement": "Ci level", "setting": "[1]; 1 nM, absence of HH signaling", "result": "significantly reduced"},
      {"measurement": "Ci mobility form (phosphorylation)", "setting": "[1]; 1 nM, absence of HH signaling", "result": "shifted Ci to the low mobility form"},
      {"measurement": "Ci detection", "setting": "[1]; 5 to 10 nM", "result": "completely undetectable"},
      {"measurement": "Ci level and mobility", "setting": "[1]; presence of HH", "result": "overcame the induction effect of HH"},
      {"measurement": "Shh-N induction of Is11 mRNA", "setting": "[2]", "result": "completely blocked"},
      {"measurement": "Shh-induced COUP-TFII mRNA", "setting": "[3]", "result": "complete inhibition"}
    ]}
  ]
}
